How the values were obtained:
Type in all cases: biochemical
[1] = target: T1, CDK1:Cyclin-B (Homo sapiens, UniProt P06493); assay: CDK1 Screening Assay; conditions: 10 μM ATP, biotinylated histone-H1 peptide substrate, 33P-γ-ATP FlashPlate; read-out: Kinase IC50 CDK1
T1 construct: purchased New England Biolabs, Beverly, Mass; 6020; host or cells: insect cells
Description: (§1) A kinase reaction mixture was prepared containing 50 mM Tris.HCl pH=8, 10 mM MgCl2, 0.1 mM Na3PO4, 1 mM DTT, 10 μM ATP, 0.025 μM biotinylated histone-H1 peptide substrate and 0.2 μCuries per well ^33P-γ-ATP (2000-3000 Ci/mmol). 70 μL of the kinase reaction mixture was dispensed into the well of a streptavidin coated FlashPlate™ (Cat. # SMP103, NEN, Boston, Mass.). Then 1 μL of test compound stock in 100% DMSO was added to the wells resulting in a final concentration of 1% DMSO in the reaction well with a 100 μL final reaction well volume.
(§2) The CDK1:Cyclin-B protein was diluted in 50 mM Tris.HCl pH=8.0, 0.1% BSA at a concentration of 1 ng per μL and 30 μL (30 ng enzyme per test well) was added to each well to initiate the reaction. The reaction was incubated for one hour at 30° C. At the end of the one hour incubation, the reaction was terminated by aspirating the mixture from the plate and washing the wells twice with PBS containing 100 mM EDTA. The histone-H1 biotinylated peptide substrate became immobilized on the Flashplate™ and the incorporation of ^33P-γ-ATP was measured by reading the plate on a scintillation counter. Inhibition of the enzymatic activity of CDK1 was measured by observing a reduced amount of ^33P-γ-ATP incorporated into the immobilized peptide.
The CDK1 kinase used was isolated from insect cells expressing both the human CDK1 catalytic subunit and its positive regulatory subunit cyclin B (New England Biolabs, Beverly, Mass., Cat. # 6020).
(§3) An IC50 listed as >0.1, >1, >10 or >100 means no observed 50% inhibition at the indicated test concentration. […] ND means the compound was not tested in the assay specified.

[2] = target: T2, CDK2:Cyclin A (Homo sapiens, UniProt P24941); assay: CDK2 Screening Assay; conditions: 10 μM ATP, biotinylated histone-H1 peptide substrate, 33P-γ-ATP FlashPlate; read-out: Kinase IC50 CDK2
T2 construct: purchased Upstate Biotech, Lake Placid, N.Y
Description: as §1
as §2, with “CDK2:Cyclin A” for “CDK1:Cyclin-B”, “CDK2” for “CDK1”
The CDK2 kinase used was complexed with cyclin A and is commercially available (Upstate Biotech, Lake Placid, N.Y.).
as §3

[3] = target: VEGF-R2 kinase domain (Rattus norvegicus, UniProt O08775); assay: VEGF-R2 Screening Assay; conditions: 10 μM ATP, biotinylated PLC1 peptide substrate, 33P-γ-ATP FlashPlate; read-out: Kinase IC50 VEGFR
Description: as §1, with “biotinylated” for “biotinylated histone-H1”, “0.8” for “0.2”
The soluble rat tyrosine kinase containing an N-terminal 6×HIS tag was diluted in 50 mM Tris.HCl pH=8.0, 0.1% BSA at a concentration of 5 ng per μL and 30 μL (150 ng enzyme per test well) was added to each well to initiate the reaction. The reaction was incubated for one hour at 30° C. At the end of the one hour incubation, the reaction was terminated by aspirating the reaction mixture from the plate and washing the wells twice with PBS containing 100 mM EDTA. The PLC1 biotinylated peptide substrate became immobilized on the Flashplate™ and the incorporation of ^33P-γ-ATP was measured by reading the plate on a scintillation counter. Inhibition of the enzymatic activity of the VEGF-R was measured by observing a reduced amount of ^33P-γ-ATP incorporated into the immobilized peptide.
The VEGF-R kinase assay was carried out using the CDK kinase assay procedure except that the enzyme was replaced with the VEGF-R2 fusion protein containing a polyhistidine tag at the N-terminus followed by amino acids 786-1343 of the rat VEGF-R2 kinase domain (GenBank Accession #U93306).
as §3

T1 sequence (P06493 whole entry): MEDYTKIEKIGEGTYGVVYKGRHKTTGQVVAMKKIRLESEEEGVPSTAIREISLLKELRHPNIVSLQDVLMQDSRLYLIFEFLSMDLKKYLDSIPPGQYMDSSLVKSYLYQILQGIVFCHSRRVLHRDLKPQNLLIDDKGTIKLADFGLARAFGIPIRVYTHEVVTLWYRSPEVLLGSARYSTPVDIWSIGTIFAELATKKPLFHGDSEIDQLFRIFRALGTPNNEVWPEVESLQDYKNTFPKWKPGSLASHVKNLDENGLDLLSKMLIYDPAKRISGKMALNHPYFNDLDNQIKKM
T1 sequence (P14635 whole entry partner): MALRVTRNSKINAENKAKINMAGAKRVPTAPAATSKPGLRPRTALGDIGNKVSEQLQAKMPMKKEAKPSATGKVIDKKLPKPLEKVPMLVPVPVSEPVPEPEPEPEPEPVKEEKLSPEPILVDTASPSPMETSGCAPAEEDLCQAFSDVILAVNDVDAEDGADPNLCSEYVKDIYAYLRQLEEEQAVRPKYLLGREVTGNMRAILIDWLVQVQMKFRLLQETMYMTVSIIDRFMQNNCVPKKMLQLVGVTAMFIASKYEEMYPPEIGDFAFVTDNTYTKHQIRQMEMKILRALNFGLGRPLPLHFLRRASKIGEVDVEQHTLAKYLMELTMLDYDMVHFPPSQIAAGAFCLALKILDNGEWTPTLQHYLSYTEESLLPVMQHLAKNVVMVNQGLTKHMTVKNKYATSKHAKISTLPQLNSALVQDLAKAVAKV
VEGF-R2 kinase domain, sequence (O08775 786-1343): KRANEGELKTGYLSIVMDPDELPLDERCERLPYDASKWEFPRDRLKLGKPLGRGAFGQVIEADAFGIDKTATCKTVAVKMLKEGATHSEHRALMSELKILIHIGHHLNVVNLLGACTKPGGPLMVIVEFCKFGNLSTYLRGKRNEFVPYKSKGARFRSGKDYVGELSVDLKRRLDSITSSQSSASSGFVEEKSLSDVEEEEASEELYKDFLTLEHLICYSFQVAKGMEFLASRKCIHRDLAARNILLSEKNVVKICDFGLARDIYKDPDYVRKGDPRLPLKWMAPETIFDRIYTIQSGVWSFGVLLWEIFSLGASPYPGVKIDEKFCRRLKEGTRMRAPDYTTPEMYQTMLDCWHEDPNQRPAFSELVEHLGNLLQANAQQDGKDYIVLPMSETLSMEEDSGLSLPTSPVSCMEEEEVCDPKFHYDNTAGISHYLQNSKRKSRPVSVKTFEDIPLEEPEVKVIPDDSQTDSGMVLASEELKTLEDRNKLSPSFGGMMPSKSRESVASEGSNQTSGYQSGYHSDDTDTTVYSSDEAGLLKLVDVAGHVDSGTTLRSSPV

IC50 [1] [µM] | IC50 [2] [µM] | IC50 [3] [µM] | Compound
> 100 | 13.6 | > 100 | O=C(Nc1cccc2sc(Nc3ccccc3)nc12)c1ccc(-c2ccccc2)cc1 [Cpd 34, biphenyl-4-carboxylic acid (2-phenylamino-benzothiazol-4-yl)-amide]
> 100 | > 100 | > 100 | O=C(Nc1cccc2sc(Nc3ccccc3)nc12)c1cccs1 [Cpd 35, thiophene-2-carboxylic acid (2-phenylamino-benzothiazol-4-yl)-amide]
42.7 | 4.02 | ≥ 100 | O=C(Nc1cccc2sc(Nc3ccccc3)nc12)c1cccnc1 [Cpd 36, N-(2-phenylamino-benzothiazol-4-yl)-nicotinamide]
> 100 | 8.02 | > 100 | O=C(Nc1cccc2sc(Nc3ccccc3)nc12)c1ccco1 [Cpd 37, furan-2-carboxylic acid (2-phenylamino-benzothiazol-4-yl)-amide]
> 100 | 11 | > 100 | N#Cc1cccc(C(=O)Nc2cccc3sc(Nc4ccccc4)nc23)c1 [Cpd 38, 3-cyano-N-(2-phenylamino-benzothiazol-4-yl)-benzamide]
7.15 | 1.03 | > 100 | Cc1cc(C)cc(C(=O)Nc2cccc3sc(Nc4ccccc4)nc23)c1 [Cpd 39, 3,5-dimethyl-N-(2-phenylamino-benzothiazol-4-yl)-benzamide]
> 100 | > 100 | > 100 | O=C(Nc1cccc2sc(Nc3ccccc3)nc12)c1ccc2ccccc2c1 [Cpd 40, naphthalene-2-carboxylic acid (2-phenylamino-benzothiazol-4-yl)-amide]
> 100 | 2.05 | ≥ 100 | O=C(Nc1cccc2sc(Nc3ccccc3)nc12)C1CCCCC1 [Cpd 41, cyclohexanecarboxylic acid (2-phenylamino-benzothiazol-4-yl)-amide]
> 100 | > 100 | > 100 | CCc1ccc(C(=O)Nc2cccc3sc(Nc4ccccc4)nc23)s1 [Cpd 42, 5-ethyl-thiophene-2-carboxylic acid (2-phenylamino-benzothiazol-4-yl)-amide]
> 100 | > 100 | > 100 | O=C(Nc1cccc2sc(Nc3ccccc3)nc12)c1cc([N+](=O)[O-])cc([N+](=O)[O-])c1 [Cpd 43, 3,5-dinitro-N-(2-phenylamino-benzothiazol-4-yl)-benzamide]
1.67 | 0.31 | > 100 | O=C(Nc1cccc2sc(Nc3ccccc3)nc12)c1c(Cl)cc(Cl)cc1Cl [Cpd 44, 2,4,6-trichloro-N-(2-phenylamino-benzothiazol-4-yl)-benzamide]
> 10 | 1.66 | > 100 | O=C(Nc1cccc2sc(Nc3ccccc3)nc12)c1c(F)cc(F)cc1F [Cpd 45, 2,4,6-trifluoro-N-(2-phenylamino-benzothiazol-4-yl)-benzamide]
> 100 | 16.1 | > 100 | COc1cccc(OC)c1C(=O)Nc1cccc2sc(Nc3ccccc3)nc12 [Cpd 46, 2,6-dimethoxy-N-(2-phenylamino-benzothiazol-4-yl)-benzamide]
4.3 | 0.611 | > 100 | O=C(Nc1cccc2sc(Nc3ccccc3)nc12)c1c(Cl)cccc1Cl [Cpd 47, 2,6-dichloro-N-(2-phenylamino-benzothiazol-4-yl)-benzamide]
2.71 | 0.679 | ≥ 100 | Cc1ccc(F)c(C(=O)Nc2cccc3sc(Nc4ccc(N5CCN(C)CC5)cc4)nc23)c1F [Cpd 49, 2,6-difluoro-3-methyl-N-{2-[4-(4-methyl-piperazin-1-yl)-phenylamino]-benzothiazol-4-yl}-benzamide]
> 100 | > 100 | > 100 | O=C(Nc1cccc2sc(Nc3ccccc3)nc12)c1cc2ccccc2s1 [Cpd 50, benzo[b]thiophene-2-carboxylic acid (2-phenylamino-benzothiazol-4-yl)-amide]
> 100 | 1.19 | > 100 | O=C(Cc1ccccc1)Nc1cccc2sc(Nc3ccccc3)nc12 [Cpd 51, 2-phenyl-N-(2-phenylamino-benzothiazol-4-yl)-acetamide]
> 100 | 1.37 | > 100 | O=C(Nc1cccc2sc(Nc3ccccc3)nc12)C1CCCC1 [Cpd 52, cyclopentanecarboxylic acid (2-phenylamino-benzothiazol-4-yl)-amide]
> 100 | > 100 | > 100 | O=C(CCc1ccccc1)Nc1cccc2sc(Nc3ccccc3)nc12 [Cpd 54, 3-phenyl-N-(2-phenylamino-benzothiazol-4-yl)-propionamide]
> 100 | > 100 | > 100 | O=C(Nc1cccc2sc(Nc3ccccc3)nc12)C1CCCCCC1 [Cpd 55, cycloheptanecarboxylic acid (2-phenylamino-benzothiazol-4-yl)-amide]
> 100 | > 10 | > 100 | Cc1nnsc1C(=O)Nc1cccc2sc(Nc3ccccc3)nc12 [Cpd 56, 4-methyl-[1,2,3]thiadiazole-5-carboxylic acid (2-phenylamino-benzothiazol-4-yl)-amide]
> 100 | 13.3 | > 100 | CC(C)(C)C(=O)Nc1cccc2sc(Nc3ccccc3)nc12 [Cpd 57, 2,2-dimethyl-N-(2-phenylamino-benzothiazol-4-yl)-propionamide]
> 100 | > 100 | > 100 | O=C(CC1CCCCC1)Nc1cccc2sc(Nc3ccccc3)nc12 [Cpd 58, 2-cyclohexyl-N-(2-phenylamino-benzothiazol-4-yl)-acetamide]
> 100 | > 100 | > 100 | O=C(Nc1cccc2sc(Nc3ccccc3)nc12)c1cc2c(Cl)cc(Cl)cc2[nH]1 [Cpd 59, 4,6-dichloro-1H-indole-2-carboxylic acid (2-phenylamino-benzothiazol-4-yl)-amide]
> 100 | > 100 | > 100 | CC(C)(C)NC(=O)Nc1cccc2sc(Nc3ccccc3)nc12 [Cpd 60, 1-tert-butyl-3-(2-phenylamino-benzothiazol-4-yl)-urea]
> 100 | > 100 | > 100 | O=C(Nc1cccc2sc(Nc3ccccc3)nc12)NC1CCCCC1 [Cpd 61, 1-cyclohexyl-3-(2-phenylamino-benzothiazol-4-yl)-urea]

Compound | IC50 [1] [µM] | IC50 [2] [µM] | IC50 [3] [µM]
O=C(Nc1cccc2sc(Nc3ccccc3)nc12)Oc1ccccc1 [Cpd 53, (2-phenylamino-benzothiazol-4-yl)-carbamic acid phenyl ester] | > 100 | > 100 | > 100
